Assay results reported in US20230286960A1, “ALLOSTERIC CHROMENONE INHIBITORS OF PHOSPHOINOSITIDE 3-KINASE (PI3K) FOR THE TREATMENT OF DISEASE” (Petra Pharma Corporation, priority 2020, published 2023).

molecular target: human full length PIK3CA wild-type (p110α/p85α) (Homo sapiens (Human), UniProt P42336); assay: PI3K-alpha kinase (PIK3CA) activity, wild-type, Transcreener ADP2 FI assay; settings: PI3K-α (PIK3CA) biochemical
Method: (§1) PI3K-Alpha Kinase (PIK3CA) Activity, Wild-Type and H1047R Mutant and Determining IC50 Values for Inhibitors
(§2) Recombinant, catalytically active human full length PIK3KA Wild-type and H1047R mutant were purchased as 1:1 complex of N-terminal 6× his tagged p110 ? (catalytic) and untagged p85 ? (regulatory subunit) from EMD Millipore Sigma (cat. no. 14-602M and 14-792M, respectively). The enzyme stocks were diluted to 5× stocks in buffer (20 mM HEPES pH 7.4, 100 mM NaCl, 0.5 mM EGTA, 0.01% triton-x-100) just before use. PIP2diC8 (Avanti Polar Lipids Inc., cat. no. 850185) or phosphoinositol-4,5-bisphosphate with phosphoserine (PIP2:PS) membrane (Thermo Fisher Scientific, cat. no. PV5100) was used as lipid substrates. PIP2diC8 lyophilized powder and PIP2:PS (1:19) membrane stock (1 mM in PIP2) were separately dissolved in milliQ water to a concentration of 250 uM and stored in −20° C. 10 mM stocks of compounds were serially diluted (3×) in neat DMSO and stored in a dessicator at room temperature. 5× compound stocks in 25% DMSO were prepared fresh from neat DMSO stocks.
(§3) Wild-type (WT) and H1047R mutant protein, along with buffer components (except ATP), were incubated with or without compound at 27° C. for 1 h. After incubation, the reaction was initiated by the addition of 5 uL of 125 uM ATP. A typical assay mixture (25 uL) comprised 40 mM HEPES buffer, pH 7.4, 25 mM MgCl2, 0.01% v/v triton-X-100, 5% v/v DMSO, 20 mM NaCl, 1-5 nM wt or H1047R, 25 uM ATP, and 50 uM PIP2diC8 or PIP2 in membrane. The reaction was allowed to proceed until about […] (2.5 uM ADP) after which time, 10 uL of reaction mixture was quenched with 25 uL of transcreener reagent (Transcreener ADP2 FI assay kit, BellBrook labs, Cat. No. 3013). The contents were incubated at rt for 1 h and fluorescence was measured using a plate reader (Paradigm, Molecular Devices). The same assay was also run at pH 6.0 or 6.4 using MOPS buffer (Fisher BioReagents, CAS 1132-61-2). A calibration curve was generated under identical buffer conditions with varying ADP amounts. Using that, the observed fluorescence was converted to uM ADP. A plot between [ADP] and log[I] yielded the dose-response curves that enabled the calculation of IC50s.

Sequence of human full length PIK3CA wild-type (p110α/p85α) (P42336 whole entry): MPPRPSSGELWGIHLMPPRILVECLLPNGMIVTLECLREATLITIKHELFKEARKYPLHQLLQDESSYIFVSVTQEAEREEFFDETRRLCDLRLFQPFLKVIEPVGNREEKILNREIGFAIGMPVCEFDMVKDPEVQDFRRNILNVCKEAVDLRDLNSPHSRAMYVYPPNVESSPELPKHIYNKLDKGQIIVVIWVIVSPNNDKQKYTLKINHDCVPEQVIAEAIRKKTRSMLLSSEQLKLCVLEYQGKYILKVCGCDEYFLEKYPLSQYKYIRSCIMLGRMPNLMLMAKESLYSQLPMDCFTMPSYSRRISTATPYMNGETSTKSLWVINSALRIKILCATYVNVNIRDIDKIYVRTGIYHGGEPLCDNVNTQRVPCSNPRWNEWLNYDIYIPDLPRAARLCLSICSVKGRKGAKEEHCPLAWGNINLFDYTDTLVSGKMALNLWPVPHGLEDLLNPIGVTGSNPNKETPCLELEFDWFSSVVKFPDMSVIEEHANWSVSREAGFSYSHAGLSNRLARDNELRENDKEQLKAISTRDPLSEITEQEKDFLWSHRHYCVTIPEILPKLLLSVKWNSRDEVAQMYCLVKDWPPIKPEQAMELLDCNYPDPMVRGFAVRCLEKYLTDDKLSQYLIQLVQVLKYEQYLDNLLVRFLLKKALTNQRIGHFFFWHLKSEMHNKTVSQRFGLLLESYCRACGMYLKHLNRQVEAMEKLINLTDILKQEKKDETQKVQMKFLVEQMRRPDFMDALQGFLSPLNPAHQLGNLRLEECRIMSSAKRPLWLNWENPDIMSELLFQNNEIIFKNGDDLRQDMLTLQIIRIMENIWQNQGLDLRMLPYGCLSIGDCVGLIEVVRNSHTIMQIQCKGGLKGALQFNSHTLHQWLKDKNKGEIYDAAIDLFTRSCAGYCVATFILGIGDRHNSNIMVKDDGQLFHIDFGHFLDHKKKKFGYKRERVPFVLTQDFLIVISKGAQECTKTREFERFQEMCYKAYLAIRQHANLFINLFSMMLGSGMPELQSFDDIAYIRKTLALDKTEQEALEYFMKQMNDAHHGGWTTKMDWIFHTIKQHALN
Sequence of human full length PIK3CA wild-type (p110α/p85α) (P27986 whole entry partner): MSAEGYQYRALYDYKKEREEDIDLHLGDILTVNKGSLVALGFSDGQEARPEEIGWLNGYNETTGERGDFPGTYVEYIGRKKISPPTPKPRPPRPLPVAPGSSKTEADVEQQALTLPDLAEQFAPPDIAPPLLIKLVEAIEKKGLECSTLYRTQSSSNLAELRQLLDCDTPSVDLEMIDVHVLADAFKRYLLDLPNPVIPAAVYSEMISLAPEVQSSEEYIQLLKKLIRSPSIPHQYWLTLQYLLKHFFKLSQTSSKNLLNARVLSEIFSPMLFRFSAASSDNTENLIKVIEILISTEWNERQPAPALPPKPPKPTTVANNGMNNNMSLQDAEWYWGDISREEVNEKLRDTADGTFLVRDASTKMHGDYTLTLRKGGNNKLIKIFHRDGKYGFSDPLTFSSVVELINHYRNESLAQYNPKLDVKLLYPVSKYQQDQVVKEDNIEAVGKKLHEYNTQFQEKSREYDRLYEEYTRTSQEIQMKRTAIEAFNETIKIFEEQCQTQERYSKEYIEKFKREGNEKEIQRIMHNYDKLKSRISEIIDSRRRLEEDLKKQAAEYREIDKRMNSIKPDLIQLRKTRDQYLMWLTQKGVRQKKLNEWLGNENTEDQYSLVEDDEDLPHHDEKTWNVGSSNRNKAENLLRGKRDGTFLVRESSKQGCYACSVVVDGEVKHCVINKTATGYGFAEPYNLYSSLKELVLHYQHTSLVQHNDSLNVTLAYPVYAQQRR

Structure (SMILES)	IC50 [µM]
Cc1cc(C(C)Nc2ccccc2C(=O)O)c2oc(N3CCn4cnnc4C3)cc(=O)c2c1 (centres unmarked) [Example 163, 2-[1-[2-(6,8-Dihydro-5H-[1,2,4]triazolo[4,3-a]pyrazin-7-yl)-6-methyl-4-oxo-chromen-8-yl]ethylamino]benzoic acid]	> 10
CCNc1cc(=O)c2cc(C)cc(C(C)Nc3ccccc3C(=O)O)c2o1 (centres unmarked) [Example 126, 2-[1-[2-(Ethylamino)-6-methyl-4-oxo-chromen-8-yl]ethylamino]benzoic acid]	> 10
CNC(=O)C1CCN(c2cc(=O)c3cc(C)cc(C(C)Nc4ccccc4C(=O)O)c3o2)CC1 (centres unmarked) [Example 371, 2-[1-[6-Methyl-2-[4-(methylcarbamoyl)-1-piperidyl]-4-oxo-chromen-8-yl]ethylamino]benzoic acid]	> 10
Cc1cc(C(C)Nc2ccccc2C(=O)O)c2oc(N3CC4CCC(C3)O4)cc(=O)c2c1 (centres unmarked) [Example 82, 2-[1-[6-Methyl-2-(8-oxa-3-azabicyclo[3.2.1]octan-3-yl)-4-oxo-chromen-8-yl]ethylamino]benzoic acid]	> 10
Cc1cc(C(C)Nc2cccc(F)c2C(=O)O)c2oc(N3Cc4ccc(F)cc4C3)cc(=O)c2c1 (centres unmarked) [Example 238, 2-Fluoro-6-[1-[2-(5-fluoroisoindolin-2-yl)-6-methyl-4-oxo-chromen-8-yl]ethylamino]benzoic acid]	> 10
Cc1cc(C(C)Nc2ccccc2C(=O)O)c2oc(N3CC(N(C)C)C3)cc(=O)c2c1 (centres unmarked) [Example 68, 2-[1-[2-[3-(Dimethylamino)azetidin-1-yl]-6-methyl-4-oxo-chromen-8-yl]ethylamino]benzoic acid]	> 10

molecular target: human full length PIK3CA H1047R mutant (p110α/p85α) (Homo sapiens (Human), UniProt P42336, H1047R); assay: PI3K-alpha kinase (PIK3CA) activity, H1047R mutant, Transcreener ADP2 FI assay; settings: PI3K-α (PIK3CA) biochemical
Method: as §1, §2, §3

Sequence of human full length PIK3CA H1047R mutant (p110α/p85α) (P42336 whole entry H1047R): as the sequence (P42336 whole entry) above, with H1047R counted along it
Sequence of human full length PIK3CA H1047R mutant (p110α/p85α) (P27986 whole entry partner): as the sequence (P27986 whole entry partner) above

Structure (SMILES)	IC50 [µM]
Cc1cc(C(C)Nc2ccc(Cl)nc2C(=O)O)c2oc(N3CCC4(CC3)CC4)c(C)c(=O)c2c1 (centres unmarked) [Example 302, 3-[1-[2-(6-Azaspiro[2.5]octan-6-yl)-3,6-dimethyl-4-oxo-chromen-8-yl]ethylamino]-6-chloro-pyridine-2-carboxylic acid]	< 0.5
Cc1cc(C(C)Nc2ccccc2C(=O)O)c2oc(N3CC(C(C)(F)F)C3)cc(=O)c2c1 (stereo not drawn) [Example 189, 2-[1-[2-[3-(1,1-Difluoroethyl)azetidin-l-yl]-6-methyl-4-oxo-chromen-8-yl]ethylamino]benzoic acid 2,2,2-trifluoroacetic acid]	< 0.5
Cc1cc(C(C)Nc2ccc(Cl)nc2C(=O)O)c2oc(N3Cc4ccc(F)cc4C3)cc(=O)c2c1 (centres unmarked) [Example 297, 6-Chloro-3-[1-[2-(5-fluoroisoindolin-2-yl)-6-methyl-4-oxo-chromen-8-yl]ethylamino]pyridine-2-carboxylic acid]	< 0.5
Cc1cc(C(C)Nc2ccccc2-c2nnn[nH]2)c2oc(N3CCC(C)(C)CC3)cc(=O)c2c1 (centres unmarked) [Example 20, 2-(4,4-Dimethyl-1-piperidyl)-6-methyl-8-[1-[2-(1H-tetrazol-5-yl)anilino]ethyl]chromen-4-one]	< 0.5
Cc1cc(C(C)Nc2ccccc2C(=O)O)c2oc(N3CCc4ccccc4C3)cc(=O)c2c1 (centres unmarked) [Example 233, 2-[1-[2-(3,4-Dihydro-1H-isoquinolin-2-yl)-6-methyl-4-oxo-chromen-8-yl]ethylamino]benzoic acid]	< 0.5
CC(Nc1ccccc1C(=O)O)c1cc(F)cc2c(=O)cc(N3CCC4(CC3)CC4)oc12 (centres unmarked) [Example 398, 2-[1-[2-(6-Azaspiro[2.5]octan-6-yl)-6-fluoro-4-oxo-chromen-8-yl]ethylamino]benzoic acid 2,2,2-trifluoroacetic acid]	< 0.5
Cc1cc(C(C)Nc2ccccc2C(=O)O)c2oc(N3CC4(CCCCC4)C3)cc(=O)c2c1 (centres unmarked) [Example 88, 2-[1-[2-(2-Azaspiro[3.5]nonan-2-yl)-6-methyl-4-oxo-chromen-8-yl]ethylamino]benzoic acid]	< 0.5
CONC(=O)c1ccccc1NC(C)c1cc(C)cc2c(=O)cc(N3CCC(C)(C)CC3)oc12 (centres unmarked) [Example 19, 2-[1-[2-(4,4-Dimethyl-1-piperidyl)-6-methyl-4-oxo-chromen-8-yl]ethylamino]-N-methoxy-benzamide]	< 0.5
Cc1cc([C@@H](C)Nc2ccccc2C(=O)O)c2oc(N3CCCCC3)cc(=O)c2c1 [Example 376, 2-[[(1R)-1-[6-Methyl-4-oxo-2-(1-piperidyl)chromen-8-yl]ethyl]amino]benzoic acid]	< 0.5
Cc1cc(C(C)Nc2sc(Cl)nc2C(=O)O)c2oc(N3Cc4ccccc4C3)cc(=O)c2c1 (centres unmarked) [Example 245, 2-Chloro-5-[1-(2-isoindolin-2-yl-6-methyl-4-oxo-chromen-8-yl)ethylamino]thiazole-4-carboxylic acid 2,2,2-trifluoroacetic acid]	< 0.5
Cc1cc(C(C)Nc2ccccc2C(=O)O)c2oc(N3CCCC(C)(C)C3)cc(=O)c2c1 (centres unmarked) [Example 65, 2-[1-[2-(3,3-Dimethyl-1-piperidyl)-6-methyl-4-oxo-chromen-8-yl]ethylamino]benzoic acid]	< 0.5
CCc1c(N2CCC(C)(C)CC2)oc2c(C(C)Nc3ccccc3C(=O)O)cc(C)cc2c1=O (centres unmarked) [Example 55, 2-[1-[2-(4,4-dimethyl-1-piperidyl)-3-ethyl-6-methyl-4-oxo-chromen-8-yl]ethylamino]benzoic acid]	< 0.5
Cc1cc([C@@H](C)Nc2ccccc2C(=O)O)c2oc(N3CC4(CCC4(F)F)C3)c(C)c(=O)c2c1 [Example 289, 2-[[(1R)-1-[2-(7,7-Difluoro-2-azaspiro[3.3]heptan-2-yl)-3,6-dimethyl-4-oxo-chromen-8-yl]ethyl]amino]benzoic acid]	< 0.5
CC(Nc1ccccc1C(=O)O)c1cc(C(F)(F)F)cc2c(=O)cc(N3CCC(F)(F)CC3)oc12 (centres unmarked) [Example 396, 2-[1-[2-(4,4-Difluoro-1-piperidyl)-4-oxo-6-(trifluoromethyl)chromen-8-yl]ethylamino]benzoic acid 2,2,2-trifluoroacetic acid]	< 0.5
Cc1cc(C(C)Nc2ccccc2C(=O)O)c2oc(N3Cc4ccc(F)cc4C3)cc(=O)c2c1 (centres unmarked) [Example 105, 2-[1-[2-(5-Fluoroisoindolin-2-yl)-6-methyl-4-oxo-chromen-8-yl]ethylamino]benzoic acid]	< 0.5
CC(Nc1ccccc1C(=O)O)c1cc(F)cc2c(=O)cc(N3CCC(F)(F)CC3)oc12 (centres unmarked) [Example 399]	< 0.5
Cc1cc(C(C)Nc2ccccc2C(=O)O)c2oc(N3CC4CC(C4)C3)cc(=O)c2c1 (centres unmarked) [Example 177, 2-[1-[2-(3-Azabicyclo[3.1.1]heptan-3-yl)-6-methyl-4-oxo-chromen-8-yl]ethylamino]benzoic acid 2,2,2-trifluoroacetic acid]	< 0.5
Cc1cc([C@@H](C)Nc2ccccc2C(=O)O)c2oc(N3CCC(C#N)(c4ccccc4)CC3)c(C)c(=O)c2c1 [Example 288, 2-[[(1R)-1-[2-(4-Cyano-4-phenyl-1-piperidyl)-3,6-dimethyl-4-oxo-chromen-8-yl]ethyl]amino]benzoic acid]	< 0.5
Cc1cc(C(C)Nc2ccc(Cl)nc2C(=O)O)c2oc(N3Cc4ccc5c(c4C3)OCO5)cc(=O)c2c1 (centres unmarked) [Example 299, 6-Chloro-3-[1-[2-(6,8-dihydro-[1,3]dioxolo[4,5-e]isoindol-7-yl)-6-methyl-4-oxo-chromen-8-yl]ethylamino]pyridine-2-carboxylic acid]	< 0.5
Cc1cc(C(C)Nc2ccccc2C(=O)O)c2oc(N3CCn4cccc4C3)cc(=O)c2c1 (centres unmarked) [Example 171, 2-[1-[2-(3,4-Dihydro-1H-pyrrolo[1,2-a]pyrazin-2-yl)-6-methyl-4-oxo-chromen-8-yl]ethylamino]benzoic acid]	< 0.5
